Molecular target: human F508del-CFTR (Homo sapiens, UniProt P13569, DEL508-508)
Assay: F508del-CFTR cell surface expression (corrector activity), DiscoveRx ß-galactosidase complementation chemiluminescence assay in recombinant U2OS cell line;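 also: U2OS cells co-expressing ProLink-tagged F508del-CFTR and a membrane-anchored enzyme acceptor, where more surface CFTR restores β-galactosidase activity measured by chemiluminescence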
Details: U2OS cells, 16h compound incubation; for EC50: EC50, F508del-CFTR cell surface expression, geomean of several measurements; for Emax: U2OS, in relation to the Emax of the corrector lumacaftor (=100%), arithmetic mean

Sequence of human F508del-CFTR (P13569 with tags, fused parts or gaps DEL508-508): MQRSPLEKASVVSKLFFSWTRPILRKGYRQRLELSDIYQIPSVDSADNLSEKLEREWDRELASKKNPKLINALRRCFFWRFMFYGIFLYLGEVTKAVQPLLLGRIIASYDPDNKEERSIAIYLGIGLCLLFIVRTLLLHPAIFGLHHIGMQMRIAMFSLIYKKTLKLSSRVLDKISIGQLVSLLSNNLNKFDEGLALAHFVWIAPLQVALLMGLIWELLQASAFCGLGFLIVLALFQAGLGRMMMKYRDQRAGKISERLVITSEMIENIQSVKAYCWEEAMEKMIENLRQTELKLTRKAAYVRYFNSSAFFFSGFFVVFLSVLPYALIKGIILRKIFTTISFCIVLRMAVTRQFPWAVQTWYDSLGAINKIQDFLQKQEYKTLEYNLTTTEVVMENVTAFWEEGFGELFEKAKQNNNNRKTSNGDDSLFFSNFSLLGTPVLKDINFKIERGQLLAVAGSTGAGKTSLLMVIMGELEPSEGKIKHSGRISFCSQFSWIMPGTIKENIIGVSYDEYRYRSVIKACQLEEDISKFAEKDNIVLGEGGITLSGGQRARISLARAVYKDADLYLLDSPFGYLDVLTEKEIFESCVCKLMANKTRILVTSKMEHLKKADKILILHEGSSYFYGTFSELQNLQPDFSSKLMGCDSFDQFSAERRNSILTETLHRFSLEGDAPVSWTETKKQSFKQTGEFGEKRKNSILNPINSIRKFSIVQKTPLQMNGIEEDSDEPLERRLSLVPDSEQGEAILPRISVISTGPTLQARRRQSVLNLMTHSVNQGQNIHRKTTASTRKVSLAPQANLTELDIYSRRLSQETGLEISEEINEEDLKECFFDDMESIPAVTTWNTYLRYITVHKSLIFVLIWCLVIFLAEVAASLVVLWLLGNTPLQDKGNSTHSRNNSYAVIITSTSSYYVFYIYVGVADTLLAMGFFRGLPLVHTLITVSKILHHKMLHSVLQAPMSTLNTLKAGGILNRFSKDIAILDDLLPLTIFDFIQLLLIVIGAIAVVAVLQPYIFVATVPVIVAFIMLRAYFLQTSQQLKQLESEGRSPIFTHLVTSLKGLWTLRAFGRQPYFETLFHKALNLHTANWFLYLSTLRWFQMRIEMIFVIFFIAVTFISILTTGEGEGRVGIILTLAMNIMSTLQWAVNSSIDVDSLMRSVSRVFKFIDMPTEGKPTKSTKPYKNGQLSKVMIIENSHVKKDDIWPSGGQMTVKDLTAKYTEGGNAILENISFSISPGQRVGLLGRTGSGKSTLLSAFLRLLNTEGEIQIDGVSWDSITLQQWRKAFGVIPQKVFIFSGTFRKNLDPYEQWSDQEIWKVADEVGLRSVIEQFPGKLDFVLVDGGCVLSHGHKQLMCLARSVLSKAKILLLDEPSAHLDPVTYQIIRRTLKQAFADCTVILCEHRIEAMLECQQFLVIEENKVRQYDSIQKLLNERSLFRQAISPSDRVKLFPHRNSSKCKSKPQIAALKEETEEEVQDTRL

| Compound | EC50 | Emax |
| --- | --- | --- |
| CC(C)C[C@H]1C(=O)N(C)C2(CC(F)(F)C2)C(=O)N[C@H](Cc2ccccc2)COc2cnc3ccc(F)cc3c2C(=O)N[C@H](C(=O)NCCn2nnc(C3CC3)n2)CC(=O)N1C [Example 838, (3′S,7′S,13′R)-13′-benzyl-N-(2-(5-cyclopropyl-2H-tetrazol-2-yl)ethyl)-3,3,20′-trifluoro-7′-isobutyl-6′,9′-dimethyl-1′,5′,8′,11′-tetraoxo-2′,3′,4′,5′,6′,7′,8′,9′,11′,12′,13′,14′-dodecahydro-1′H-spiro[cyclobutane-1,10′-[1]oxa[4,7,10,14]tetraazacycloheptadecino[17,16-c]quinoline]-3′-carboxamide] | 118 nM | 358% |
| COc1cc(CCNC(=O)[C@@H]2CC(=O)N(C)[C@@H](CC(C)C)C(=O)N(C)C3(CC(F)(F)C3)C(=O)N[C@H](Cc3ccccc3)COc3cnc4ccc(F)cc4c3C(=O)N2)on1 [Example 839, (3′S,7′S,13′R)-13′-benzyl-3,3,20′-trifluoro-7′-isobutyl-N-(2-(3-methoxyisoxazol-5-yl)ethyl)-6′,9′-dimethyl-1′,5′,8′,11′-tetraoxo-2′,3′,4′,5′,6′,7′,8′,9′,11′,12′,13′,14′-dodecahydro-1′H-spiro[cyclobutane-1,10′-[1]oxa[4,7,10,14]tetraazacycloheptadecino[17,16-c]quinoline]-3′-carboxamide] | 123 nM | 336% |
| CC(C)C[C@H]1C(=O)N(C)[C@H](Cc2nc(-c3ccc(F)cn3)no2)C(=O)N[C@H](Cc2ccccc2)COc2cnc3ccc(F)cc3c2C(=O)N[C@H](C(=O)NCCn2nc3ccccc3n2)CC(=O)N1C [Example 840, (3S,7S,10R,13R)-N-(2-(2H-benzo[d][1,2,3]triazol-2-yl)ethyl)-13-benzyl-20-fluoro-10-((3-(5-fluoropyridin-2-yl)-1,2,4-oxadiazol-5-yl)methyl)-7-isobutyl-6,9-dimethyl-1,5,8,11-tetraoxo-1,2,3,4,5,6,7,8,9,10,11,12,13,14-tetradecahydro-[1]oxa[4,7,10,14]tetraazacycloheptadecino[17,16-c]quinoline-3-carboxamide] | 128 nM | 363% |
| CC(C)C[C@H]1C(=O)N(C)C2(CC(F)(F)C2)C(=O)N[C@H](Cc2ccccc2)COc2cnc3ccc(F)cc3c2C(=O)N[C@H](C(=O)NCCc2nc(C3CC3)no2)CC(=O)N1C [Example 841, (3′S,7′S,13′R)-13′-benzyl-N-(2-(3-cyclopropyl-1,2,4-oxadiazol-5-yl)ethyl)-3,3,20′-trifluoro-7′-isobutyl-6′,9′-dimethyl-1′,5′,8′,11′-tetraoxo-2′,3′,4′,5′,6′,7′,8′,9′,11′,12′,13′,14′-dodecahydro-1′H-spiro[cyclobutane-1,10′-[1]oxa[4,7,10,14]tetraazacycloheptadecino[17,16-c]quinoline]-3′-carboxamide] | 120 nM | 271% |
| CC(C)C[C@H]1C(=O)N(C)[C@H](Cc2nc(-c3ccc(F)cn3)no2)C(=O)N[C@H](Cc2ccccc2)COc2cnc3ccc(F)cc3c2C(=O)N[C@H](C(=O)NC[C@@H](O)c2ccccc2)CC(=O)N1C [Example 842, (3S,7S,10R,13R)-13-benzyl-20-fluoro-10-((3-(5-fluoropyridin-2-yl)-1,2,4-oxadiazol-5-yl)methyl)-N-((S)-2-hydroxy-2-phenylethyl)-7-isobutyl-6,9-dimethyl-1,5,8,11-tetraoxo-1,2,3,4,5,6,7,8,9,10,11,12,13,14-tetradecahydro-[1]oxa[4,7,10,14]tetraazacycloheptadecino[17,16-c]quinoline-3-carboxamide] | 495 nM | 305% |
| COc1ccc(CCNC(=O)[C@@H]2CC(=O)N(C)[C@@H](CC(C)C)C(=O)N(C)[C@H](Cc3nc(-c4ccc(F)cn4)no3)C(=O)N[C@H](Cc3ccccc3)COc3cnc4ccc(F)cc4c3C(=O)N2)cn1 [Example 843, (3S,7S,10R,13R)-13-benzyl-20-fluoro-10-((3-(5-fluoropyridin-2-yl)-1,2,4-oxadiazol-5-yl)methyl)-7-isobutyl-N-(2-(6-methoxypyridin-3-yl)ethyl)-6,9-dimethyl-1,5,8,11-tetraoxo-1,2,3,4,5,6,7,8,9,10,11,12,13,14-tetradecahydro-[1]oxa[4,7,10,14]tetraazacycloheptadecino[17,16-c]quinoline-3-carboxamide] | 114 nM | 368% |
| CC(C)C[C@H]1C(=O)N(C)[C@H](Cc2nc(-c3ccc(F)cn3)no2)C(=O)N[C@H](Cc2ccccc2)COc2cnc3ccc(F)cc3c2C(=O)N[C@H](C(=O)NCCc2nc3ncccn3n2)CC(=O)N1C [Example 844, (3S,7S,10R,13R)-N-(2-([1,2,4]triazolo[1,5-a]pyrimidin-2-yl)ethyl)-13-benzyl-20-fluoro-10-((3-(5-fluoropyridin-2-yl)-1,2,4-oxadiazol-5-yl)methyl)-7-isobutyl-6,9-dimethyl-1,5,8,11-tetraoxo-1,2,3,4,5,6,7,8,9,10,11,12,13,14-tetradecahydro-[1]oxa[4,7,10,14]tetraazacycloheptadecino[17,16-c]quinoline-3-carboxamide] | 1040 nM | 356% |
| COCCCNC(=O)[C@@H]1CC(=O)N(C)[C@@H](CC(C)C)C(=O)N(C)[C@H](Cc2nc(-c3ccc(F)cn3)no2)C(=O)N[C@H](Cc2ccccc2)COc2cnc3ccc(F)cc3c2C(=O)N1 [Example 845, (3S,7S,10R,13R)-13-benzyl-20-fluoro-10-((3-(5-fluoropyridin-2-yl)-1,2,4-oxadiazol-5-yl)methyl)-7-isobutyl-N-(3-methoxypropyl)-6,9-dimethyl-1,5,8,11-tetraoxo-1,2,3,4,5,6,7,8,9,10,11,12,13,14-tetradecahydro-[1]oxa[4,7,10,14]tetraazacycloheptadecino[17,16-c]quinoline-3-carboxamide] | 453 nM | 308% |
| CC(C)C[C@H]1C(=O)N(C)[C@H](Cc2nc(-c3ccc(F)cn3)no2)C(=O)N[C@H](Cc2ccccc2)COc2cnc3ccc(F)cc3c2C(=O)N[C@H](C(=O)NCCCOC(F)(F)F)CC(=O)N1C [Example 846, (3S,7S,10R,13R)-13-benzyl-20-fluoro-10-((3-(5-fluoropyridin-2-yl)-1,2,4-oxadiazol-5-yl)methyl)-7-isobutyl-6,9-dimethyl-1,5,8,11-tetraoxo-N-(3-(trifluoromethoxy)propyl)-1,2,3,4,5,6,7,8,9,10,11,12,13,14-tetradecahydro-[1]oxa[4,7,10,14]tetraazacycloheptadecino[17,16-c]quinoline-3-carboxamide] | 165 nM | 261% |
| COc1ccc(CCNC(=O)[C@@H]2CC(=O)N(C)[C@@H](CC(C)C)C(=O)N(C)[C@H](Cc3nc(-c4ccc(F)cn4)no3)C(=O)N[C@H](Cc3ccccc3)COc3cnc4ccc(F)cc4c3C(=O)N2)nc1 [Example 847, (3S,7S,10R,13R)-13-benzyl-20-fluoro-10-((3-(5-fluoropyridin-2-yl)-1,2,4-oxadiazol-5-yl)methyl)-7-isobutyl-N-(2-(5-methoxypyridin-2-yl)ethyl)-6,9-dimethyl-1,5,8,11-tetraoxo-1,2,3,4,5,6,7,8,9,10,11,12,13,14-tetradecahydro-[1]oxa[4,7,10,14]tetraazacycloheptadecino[17,16-c]quinoline-3-carboxamide] | 186 nM | 340% |
